Experimental data reported in patent US20110086759A1, “CHEMICAL COMPOUNDS” (SYNGENTA CROP PROTECTION, INC., priority 2007, published 2011).

Tests used:
Type in all cases: in vivo
[1] = tested on: Echinochloa crus-galli (ECHCG); assay: Pre-emergence biological efficacy, glasshouse pot test; details: 312 h
Outline: (§1)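 Visual phytotoxicity (0 no damage, 100 total damage) assessed 13 d after treatment. Soil-sown pots sprayed one day post-sowing; dose 1000 or 250 g/ha; formulation in acetone/water 50:50, 0.5% Tween 20.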

[2] = tested on: Alopecurus myosuroides (ALOMY); assay: as above; details: 312 h
Outline: as §1

Solanum nigrum (SOLNI) [3] = assay: as above; details: 312 h
Outline: as §1

[4] = tested on: Ipomea hederaceae (IPOHE); assay: as above; details: Ipomoea hederacea, 312 h
Outline: as §1

[5] = tested on: Amaranthus retoflexus (AMARE); assay: as above; details: Amaranthus retroflexus, 312 h
Outline: as §1

Setaria faberi (SETFA) [6] = assay: as above; details: 312 h
Outline: as §1

[7] = tested on: Echinochloa crus-galli (ECHCG); assay: Post-emergence biological efficacy, glasshouse pot test; details: 312 h
Outline: (§2)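 Pot-grown weeds were sprayed 8 days after sowing with test compound in acetone/water (50:50) with 0.5% Tween 20 at 1000 or 250 g/ha. Glasshouse at 24/16° C day/night, 14 h light, 65% humidity. Damage scored 0-100 (100 = total damage) after 13 days.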

[8] = tested on: Alopecurus myosuroides (ALOMY); assay: as above; details: 312 h
Outline: as §2

Solanum nigrum (SOLNI) [9] = assay: as above; details: 312 h
Outline: as §2

[10] = tested on: Ipomea hederaceae (IPOHE); assay: as above; details: Ipomoea hederacea, 312 h
Outline: as §2

[11] = tested on: Amaranthus retoflexus (AMARE); assay: as above; details: Amaranthus retroflexus, 312 h
Outline: as §2

Setaria faberi (SETFA) [12] = assay: as above; details: 312 h
Outline: as §2

[13] = pre-emergence, 1,000 g/ha, evaluated after 13 days (100=total damage; 0=no damage), read-out: Percentage damage ECHCG
[14] = pre-emergence, 1,000 g/ha, evaluated after 13 days (100=total damage; 0=no damage), read-out: Percentage damage ALOMY
[15] = pre-emergence, 1,000 g/ha, evaluated after 13 days (100=total damage; 0=no damage), read-out: Percentage damage SOLNI
[16] = pre-emergence, 1,000 g/ha, evaluated after 13 days (100=total damage; 0=no damage), read-out: Percentage damage IPOHE
[17] = pre-emergence, 1,000 g/ha, evaluated after 13 days (100=total damage; 0=no damage), read-out: Percentage damage AMARE
[18] = pre-emergence, 1,000 g/ha, evaluated after 13 days (100=total damage; 0=no damage), read-out: Percentage damage SETFA
[19] = post-emergence, 1,000 g/ha, evaluated after 13 days (100=total damage; 0=no damage), read-out: Percentage damage caused to weed species, ECHCG
[20] = post-emergence, 1,000 g/ha, evaluated after 13 days (100=total damage; 0=no damage), read-out: Percentage damage caused to weed species, ALOMY
[21] = post-emergence, 1,000 g/ha, evaluated after 13 days (100=total damage; 0=no damage), read-out: Percentage damage caused to weed species, SOLNI
[22] = post-emergence, 1,000 g/ha, evaluated after 13 days (100=total damage; 0=no damage), read-out: Percentage damage caused to weed species, IPOHE
[23] = post-emergence, 1,000 g/ha, evaluated after 13 days (100=total damage; 0=no damage), read-out: Percentage damage caused to weed species, AMARE
[24] = post-emergence, 1,000 g/ha, evaluated after 13 days (100=total damage; 0=no damage), read-out: Percentage damage caused to weed species, SETFA

SMILES	pest or weed control at 1000 g/ha [1, 13]	pest or weed control at 1000 g/ha [2, 14]	pest or weed control at 1000 g/ha (Solanum nigrum (SOLNI) [3]; [15])	pest or weed control at 1000 g/ha [4, 16]	pest or weed control at 1000 g/ha [5, 17]	pest or weed control at 1000 g/ha (Setaria faberi (SETFA) [6]; [18])	pest or weed control at 1000 g/ha [7, 19]	pest or weed control at 1000 g/ha [8, 20]	pest or weed control at 1000 g/ha (Solanum nigrum (SOLNI) [9]; [21])	pest or weed control at 1000 g/ha [10, 22]	pest or weed control at 1000 g/ha [11, 23]	pest or weed control at 1000 g/ha (Setaria faberi (SETFA) [12]; [24])	other results
COC(=O)c1nc(C2CC2)nc(NC(CO)Cc2ccc(Cl)cc2)c1Cl (stereo not drawn) [Compound 4-274, 5-Chloro-4-[2-(4-chlorophenyl)-1-hydroxymethyl-ethylamino]-2-cyclopropyl-6-methoxycarbonyl-pyrimidine]	30%	40%	80%	80%	60%	40%	20%	30%	80%	50%	100%	30%	–
COC(=O)c1nc(C2CC2)nc(NC(c2ccccc2)c2ccccc2)c1Cl [Compound 4-277, 5-Chloro-2-cyclopropyl-4-(diphenylmethyl-amino)-6-methoxy-carbonylpyrimidine]	0%	0%	0%	40%	0%	0%	50%	30%	50%	70%	90%	50%	–
COC(=O)c1nc(C2CC2)nc(NC(c2ccccc2)c2ccc(Cl)cc2)c1Cl (stereo not drawn) [Compound 4-278, 5-Chloro-4-[(4-chlorophenyl)-(phenyl)-methylamino]-2-cyclopropyl-6-methoxycarbonyl-pyrimidine]	10%	0%	10%	20%	40%	10%	20%	10%	30%	60%	90%	40%	–
COC(=O)c1nc(C2CC2)nc(NC(Cc2ccccc2)c2ccccc2)c1Cl (stereo not drawn) [Compound 4-279, 5-Chloro-2-cyclopropyl-4-(1,2-diphenylethyl-amino)-6-methoxy-carbonylpyrimidine]	0%	10%	70%	60%	20%	0%	0%	10%	70%	60%	90%	40%	–
COC(=O)c1nc(C2CC2)nc(NC(Cc2ccccc2)C(=O)OC)c1Cl (stereo not drawn) [Compound 4-283, 5-Chloro-2-cyclopropyl-6-methoxycarbonyl-4-(1-methoxy-carbonyl-2-phenylethylamino)-pyrimidine]	70%	40%	100%	100%	100%	80%	60%	20%	80%	70%	100%	60%	–
COC(=O)c1nc(C2CC2)nc(NC(Cc2ccc(F)cc2)C(=O)OC)c1Cl (stereo not drawn) [Compound 4-284, 5-Chloro-2-cyclopropyl-4-[2-(4-fluorophenyl)-1-methoxycarbonyl-ethylamino]-6-methoxycarbonyl-pyrimidine]	30%	20%	90%	100%	100%	30%	20%	30%	80%	100%	100%	40%	–
COC(=O)c1nc(C2CC2)nc(NC(Cc2c[nH]c3ccccc23)C(=O)OC)c1Cl (stereo not drawn) [Compound 4-290, 5-Chloro-2-cyclopropyl-4-(2-indol-3-yl-1-methoxycarbonyl-ethylamino)-6-methoxycarbonyl-pyrimidine]	40%	20%	80%	90%	80%	30%	30%	30%	80%	70%	100%	50%	–
COC(=O)c1nc(C2CC2)nc(N(C)CC2OCCO2)c1Cl [Compound 5-54, 5-Chloro-2-cyclopropyl-4-[N-(1,3-dioxolan-2-yl)methyl-N-methyl-amino]-6-methoxycarbonyl-pyrimidine]	–	–	–	–	–	–	–	–	–	–	–	–	pest or weed control at 1000 g/ha ([1]; pre-emergence, rate 1,000 g/ha, evaluated after 13 days (100=total damage to plant; 0=no damage), read-out: Percentage damage caused to weed species, ECHCG): 0%; pest or weed control at 1000 g/ha ([2]; pre-emergence, rate 1,000 g/ha, evaluated after 13 days (100=total damage to plant; 0=no damage), read-out: Percentage damage caused to weed species, ALOMY): 0%; pest or weed control at 1000 g/ha (Solanum nigrum (SOLNI) [3]; pre-emergence, rate 1,000 g/ha, evaluated after 13 days (100=total damage to plant; 0=no damage), read-out: Percentage damage caused to weed species, SOLNI): 0%; pest or weed control at 1000 g/ha ([4]; pre-emergence, rate 1,000 g/ha, evaluated after 13 days (100=total damage to plant; 0=no damage), read-out: Percentage damage caused to weed species, IPOHE): 30%; pest or weed control at 1000 g/ha ([5]; pre-emergence, rate 1,000 g/ha, evaluated after 13 days (100=total damage to plant; 0=no damage), read-out: Percentage damage caused to weed species, AMARE): 50%; pest or weed control at 1000 g/ha (Setaria faberi (SETFA) [6]; pre-emergence, rate 1,000 g/ha, evaluated after 13 days (100=total damage to plant; 0=no damage), read-out: Percentage damage caused to weed species, SETFA): 0%; pest or weed control at 1000 g/ha ([7]; Rate 1,000 g/ha, post-emergence spray, evaluated after 13 days (100=total damage to plant; 0=no damage to plant), read-out: Percentage damage caused to weed species, post-emergence, ECHCG): 0%; pest or weed control at 1000 g/ha ([8]; Rate 1,000 g/ha, post-emergence spray, evaluated after 13 days (100=total damage to plant; 0=no damage to plant), read-out: Percentage damage caused to weed species, post-emergence, ALOMY): 0%; pest or weed control at 1000 g/ha (Solanum nigrum (SOLNI) [9]; Rate 1,000 g/ha, post-emergence spray, evaluated after 13 days (100=total damage to plant; 0=no damage to plant), read-out: Percentage damage caused to weed species, post-emergence, SOLNI): 30%; pest or weed control at 1000 g/ha ([10]; Rate 1,000 g/ha, post-emergence spray, evaluated after 13 days (100=total damage to plant; 0=no damage to plant), read-out: Percentage damage caused to weed species, post-emergence, IPOHE): 60%; pest or weed control at 1000 g/ha ([11]; Rate 1,000 g/ha, post-emergence spray, evaluated after 13 days (100=total damage to plant; 0=no damage to plant), read-out: Percentage damage caused to weed species, post-emergence, AMARE): 80%; pest or weed control at 1000 g/ha (Setaria faberi (SETFA) [12]; Rate 1,000 g/ha, post-emergence spray, evaluated after 13 days (100=total damage to plant; 0=no damage to plant), read-out: Percentage damage caused to weed species, post-emergence, SETFA): 30%
